Drawing on patent US20260015358A1, “BICYCLIC DERIVATIVES, COMPOSITIONS AND USES THEREOF” (Danatlas Pharmaceuticals Co., Ltd., priority 2023, published 2026), this text covers IC50 for seven compounds.

pIC50: −log10 of the molar value. Some results are limits rather than exact numbers.

The target of experiment [1] is T1, WRN [UniPro: Q14191 (WRN_HUMAN), N500-C946] (Homo sapiens (Human), UniProt Q14191). The experiment is described as follows: WRN unwinding assay (FORKF DNA, fluorescence). The format is biochemical. To be noted: Table 14.
Experiment [2] addresses T1, WRN [UniPro: Q14191 (WRN_HUMAN), N500-C946]. Kind of experiment: WRN ATPase assay (ADP-Glo). The format is biochemical. As to conditions: WRN enzymatic activity assay.

T1 sequence (Q14191 500-946): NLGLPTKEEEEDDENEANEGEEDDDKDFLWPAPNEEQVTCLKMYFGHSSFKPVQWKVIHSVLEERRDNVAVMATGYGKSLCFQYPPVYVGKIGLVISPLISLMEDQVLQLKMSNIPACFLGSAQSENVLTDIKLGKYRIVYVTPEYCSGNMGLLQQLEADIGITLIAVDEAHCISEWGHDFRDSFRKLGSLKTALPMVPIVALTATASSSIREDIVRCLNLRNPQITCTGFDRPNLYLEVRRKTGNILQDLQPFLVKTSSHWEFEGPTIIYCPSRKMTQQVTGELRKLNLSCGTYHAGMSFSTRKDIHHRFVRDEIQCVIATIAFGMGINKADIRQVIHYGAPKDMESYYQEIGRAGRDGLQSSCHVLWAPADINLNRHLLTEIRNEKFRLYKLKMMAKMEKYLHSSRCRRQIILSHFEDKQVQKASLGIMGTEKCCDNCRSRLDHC

As for `CCc1c(N2CCN(C(=O)CNc3ncccn3)CC2)c(=O)n2nc(C3=CCOCC3)nc2n1CC(=O)Nc1ccc(C(F)(F)F)cc1Cl` [Example 207, N-(2-Chloro-4-(trifluoromethyl)phenyl)-2-(2-(3,6-dihydro-2H-pyran-4-yl)-5-ethyl-7-oxo-6-(4-(pyrimidin-2-ylglycyl)piperazin-1-yl)-[1,2,4]triazolo[1,5-a]pyrimidin-4(7H)-yl)acetamide], the pIC50 in experiment [1] and in experiment [2] was 6.00 to 7.00 in each case.

On to `CCc1c(N2CCN(C(=O)C(=O)NC3CCCC3)CC2)c(=O)n2nc(C3=CCOCC3)nc2n1CC(=O)Nc1ccc(C(F)(F)F)cc1Cl` [Example 357, 2-(4-(4-(2-((2-Chloro-4-(trifluoromethyl)phenyl)amino)-2-oxoethyl)-2-(3,6-dihydro-2H-pyran-4-yl)-5-ethyl-7-oxo-4,7-dihydro-[1,2,4]triazolo[1,5-a]pyrimidin-6-yl)piperazin-1-yl)-N-cyclopentyl-2-oxoacetamide], for which the negative logarithm of the IC50 (pIC50) in experiment [1] and in experiment [2] was 6.00 to 7.00 each time.

Regarding `CCc1c(N2CCN(C(=O)C(=O)Nc3ccno3)CC2)c(=O)n2nc(C3=CCOCC3)nc2n1CC(=O)Nc1ccc(C(F)(F)F)cc1F` [Example 341, 2-(4-(2-(3,6-Dihydro-2H-pyran-4-yl)-5-ethyl-4-(2-((2-fluoro-4-(trifluoromethyl)phenyl)amino)-2-oxoethyl)-7-oxo-4,7-dihydro-[1,2,4]triazolo[1,5-a]pyrimidin-6-yl)piperazin-1-yl)-N-(isoxazol-5-yl)-2-oxoacetamide], the pIC50 in experiment [1] and in experiment [2] was above 7.00 in each case.

Regarding `CCc1c(N2CCC(NC(=O)CNC(=O)c3ccccc3)CC2)c(=O)n2nc(C3=CCOCC3)nc2n1CC(=O)Nc1ccc(C(F)(F)F)cc1Cl` [Example 141, N-(2-((1-(4-(2-((2-Chloro-4-(trifluoromethyl)phenyl)amino)-2-oxoethyl)-2-(3,6-dihydro-2H-pyran-4-yl)-5-ethyl-7-oxo-4,7-dihydro-[1,2,4]triazolo[1,5-a]pyrimidin-6-yl)piperidin-4-yl)amino)-2-oxoethyl)benzamide], the negative logarithm of the IC50 (pIC50) in experiment [1] and in experiment [2] was below 6.00 in each case.

Regarding `CCc1c(N2CCN(C(=O)NS(=O)(=O)c3cnn(C)c3)CC2)c(=O)n2nc(C3=CCOCC3)nc2n1CC(=O)Nc1ccc(C(F)(F)F)cc1Cl` [Example 14, 4-(4-(2-((2-Chloro-4-(trifluoromethyl)phenyl)amino)-2-oxoethyl)-2-(3,6-dihydro-2H-pyran-4-yl)-5-ethyl-7-oxo-4,7-dihydro-[1,2,4]triazolo[1,5-a]pyrimidin-6-yl)-N-((1-methyl-1H-pyrazol-4-yl)sulfonyl)piperazine-1-carboxamide], the negative logarithm of the IC50 (pIC50) in experiment [1] and in experiment [2] was above 7.00 each time.

On to `CCc1c(N2CCN(C(=O)CNC(=O)Nc3nccs3)CC2)c(=O)n2nc(C3=CCOCC3)nc2n1CC(=O)Nc1ccc(C(F)(F)F)cc1Cl` [Example 188, N-(2-Chloro-4-(trifluoromethyl)phenyl)-2-(2-(3,6-dihydro-2H-pyran-4-yl)-5-ethyl-7-oxo-6-(4-((thiazol-2-ylcarbamoyl)glycyl)piperazin-1-yl)-[1,2,4]triazolo[1,5-a]pyrimidin-4(7H)-yl)acetamide], for which the pIC50 in experiment [1] and in experiment [2] was above 7.00 in each case.

For `CCc1c(N2CCN(C(=O)C(=O)Nc3cc(C)[nH]n3)CC2)c(=O)n2nc(C3=CCOCC3)nc2n1CC(=O)Nc1ccc(C(F)(F)F)cc1Cl` [Example 331, 2-(4-(4-(2-((2-Chloro-4-(trifluoromethyl)phenyl)amino)-2-oxoethyl)-2-(3,6-dihydro-2H-pyran-4-yl)-5-ethyl-7-oxo-4,7-dihydro-[1,2,4]triazolo[1,5-a]pyrimidin-6-yl)piperazin-1-yl)-N-(5-methyl-1H-pyrazol-3-yl)-2-oxoacetamide], the pIC50 in experiment [1] and in experiment [2] was above 7.00 in each case.

Usually pIC50 stands for the IC50 on a negative log10 scale, so that one unit is a factor of ten. Low readings indicate a large IC50, high ones a small IC50.
